Data: patent US11168093B2, “Thienopyridine inhibitors of RIPK2” (Celgene Corporation, priority 2018, dated 2021)

Target: RIPK2 enzyme (Homo sapiens (Human), UniProt O43353)
Assay: RIPK2 inhibition assay, TR-FRET LanthaScreen Tracer 199 screening assay
Format: binding
Details: 5 nM RIPK2 enzyme, Tracer 199 at 50 nM, Eu-anti-His Antibody at 2 nM, 1 hour incubation
How it was run: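 TR-FRET binding displacement: 5 nM RIPK2, 50 nM Tracer 199, 2 nM Eu-anti-His antibody in 1× kinase reaction buffer, 1 h, read at room temperature (340 ex/665 and 615 em). No-enzyme background subtracted; percent inhibition versus uninhibited controls, IC50 from unconstrained variable-slope fit.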

Chain of RIPK2 enzyme (O43353 whole entry): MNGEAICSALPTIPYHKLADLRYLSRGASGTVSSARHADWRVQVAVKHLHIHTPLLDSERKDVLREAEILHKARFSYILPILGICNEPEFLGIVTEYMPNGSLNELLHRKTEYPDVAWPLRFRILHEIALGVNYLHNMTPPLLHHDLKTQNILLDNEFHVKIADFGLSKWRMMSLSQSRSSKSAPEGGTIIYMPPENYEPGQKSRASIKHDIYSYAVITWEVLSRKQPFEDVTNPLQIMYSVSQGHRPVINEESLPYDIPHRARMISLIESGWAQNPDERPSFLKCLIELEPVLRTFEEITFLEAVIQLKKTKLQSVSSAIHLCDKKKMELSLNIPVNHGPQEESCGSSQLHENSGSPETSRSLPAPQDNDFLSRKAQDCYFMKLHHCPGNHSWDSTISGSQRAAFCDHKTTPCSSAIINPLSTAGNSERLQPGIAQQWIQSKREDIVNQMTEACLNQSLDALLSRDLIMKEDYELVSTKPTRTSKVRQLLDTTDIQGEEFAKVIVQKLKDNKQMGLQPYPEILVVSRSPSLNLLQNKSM

IC50 [nM] | SMILES
≤ 10 | CC1NCCCC1c1cc2c(Nc3ccc4scnc4c3F)c(F)cnc2s1 (single isomer, unassigned) [Example 124c, 4-fluoro-N-(5-fluoro-2-(2-methylpiperidin-3-yl)thieno[2,3-b]pyridin-4-yl)benzo[d]thiazol-5-amine]
≤ 10 | CCN1CCC=C(c2cc3c(Nc4c(F)cc5scnc5c4F)ccnc3s2)[C@H]1C [Example 72a, (R)—N-(2-(1-ethyl-2-methyl-1,2,5,6-tetrahydropyridin-3-yl)thieno[2,3-b]-pyridin-4-yl)-4,6-difluorobenzo[d]thiazol-5-amine]
10 to 20 | CC1NCCCC1c1cc2c(Nc3cc4ncsc4cc3F)c(F)cnc2s1 (single isomer, unassigned) [Example 122c, 6-fluoro-N-(5-fluoro-2-(2-methylpiperidin-3-yl)thieno[2,3-b]pyridin-4-yl) benzo[d]thiazol-5-amine]
≤ 10 | CC1(C)NCC=C1c1cc2c(Nc3ccc4scnc4c3)ccnc2s1 [Example 32, N-(2-(2,2-dimethyl-2,5-dihydro-1H-pyrrol-3-yl)thieno[2,3-b]pyridin-4-yl)benzo[d]thiazol-5-amine]
≤ 10 | CC1C(c2cc3c(Nc4ccc5scnc5c4F)c(F)cnc3s2)CCCN1C (single isomer, unassigned) [Example 125c, N-(2-(1,2-dimethylpiperidin-3-yl)-5-fluorothieno[2,3-b]pyridin-4-yl)-4-fluorobenzo[d]thiazol-5-amine]
≤ 10 | CCN1CCC[C@H](c2cc3c(Nc4ccc5scnc5c4F)ccnc3s2)[C@H]1C [Example 62, N-(2-((2R,3S)-1-ethyl-2-methylpiperidin-3-yl)thieno[2,3-b]pyridin-4-yl)-4-fluorobenzo[d]thiazol-5-amine]
≤ 10 | CC1NCCCC1c1cc2c(Nc3ccc4scnc4c3F)c(F)cnc2s1 (single isomer, unassigned) [Example 124b, 4-fluoro-N-(5-fluoro-2-(2-methylpiperidin-3-yl)thieno[2,3-b]pyridin-4-yl)benzo[d]thiazol-5-amine]
≤ 10 | CC1C(c2cc3c(Nc4ccc5scnc5c4)ccnc3s2)CCCCN1C (stereo not shown) [Example 116a, N-(2-(1,2-dimethylazepan-3-yl)thieno[2,3-b]pyridin-4-yl)benzo[d]thiazol-5-amine]
20 to 50 | CC1C(c2cc3c(Nc4c(F)cc5scnc5c4F)c(F)cnc3s2)CCCN1C (single isomer, unassigned) [Example 127a]
≤ 10 | C[C@H]1[C@H](c2cc3c(Nc4c(F)cc5scnc5c4F)ccnc3s2)CCCN1C [Example 71a, N-(2-((2S,3R)-1,2-dimethylpiperidin-3-yl)thieno[2,3-b]pyridin-4-yl)-4,6-difluorobenzo[d]thiazol-5-amine]
≥ 50 | CCN1CCC(c2cc3c(Nc4ccc5scnc5c4)ccnc3s2)C12CCOCC2 (stereo not shown) [Example 48, N-(2-(1-ethyl-8-oxa-1-azaspiro[4.5]decan-4-yl)thieno[2,3-b]pyridin-4-yl)benzo[d]thiazol-5-amine]
10 to 20 | CC(=O)N1CCC=C(c2cc3c(Nc4ccc5scnc5c4)ccnc3s2)C1C (stereo not shown) [Example 9, 1-(5-(4-(benzo[d]thiazol-5-ylamino)thieno[2,3-b]pyridin-2-yl)-6-methyl-3,6-dihydropyridin-1(2H)-yl)ethan-1-one]
20 to 50 | CCN1CCC(c2cc3c(Nc4cc5ncsc5cc4F)ccnc3s2)C1(C)C (stereo not shown) [Example 79, N-(2-(1-ethyl-2,2-dimethylpyrrolidin-3-yl)thieno[2,3-b]pyridin-4-yl)-6-fluorobenzo[d]thiazol-5-amine]
≥ 50 | CC1C(c2cc3c(Nc4ccc5scnc5c4F)c(F)cnc3s2)CCCN1C (single isomer, unassigned) [Example 125d, N-(2-(1,2-dimethylpiperidin-3-yl)-5-fluorothieno[2,3-b]pyridin-4-yl)-4-fluorobenzo[d]thiazol-5-amine]
20 to 50 | CC1NCCCC1c1cc2c(Nc3cc4ncsc4cc3F)c(F)cnc2s1 (single isomer, unassigned) [Example 122b, 6-fluoro-N-(5-fluoro-2-(2-methylpiperidin-3-yl)thieno[2,3-b]pyridin-4-yl) benzo[d]thiazol-5-amine]
≤ 10 | C[C@@H]1[C@@H](c2cc3c(Nc4ccc5scnc5c4F)ccnc3s2)CCCN1C [Example 58, N-(2-((2R,3S)-1,2-dimethylpiperidin-3-yl)thieno[2,3-b]pyridin-4-yl)-4-fluorobenzo[d]thiazol-5-amine]

IC50 [nM] | SMILES
20 to 50 | CCN1CCC[C@H](c2cc3c(Nc4cc5ncsc5cc4F)ccnc3s2)[C@@H]1C [Example 54b, N-(2-(1-ethyl-2-methylpiperidin-3-yl)thieno[2,3-b]pyridin-4-yl)-6-fluorobenzo[d]thiazol-5-amine]
≤ 10 | C[C@H]1NCCC[C@H]1c1cc2c(Nc3c(F)cc4scnc4c3F)ccnc2s1 [Example 67b, 4,6-difluoro-N-(2-((2R,3R)-2-methylpiperidin-3-yl)thieno[2,3-b]pyridin-4-yl)benzo[d]thiazol-5-amine]
20 to 50 | c1cc(Nc2ccc3scnc3c2)c2cc(C3CCCN4CCCCC34)sc2n1 (stereo not shown) [Example 21, N-(2-(octahydro-2H-quinolizin-1-yl)thieno[2,3-b]pyridin-4-yl)benzo[d]thiazol-5-amine]
≤ 10 | CCN1CCC[C@@H](c2cc3c(Nc4c(F)cc5scnc5c4F)ccnc3s2)[C@H]1C [Example 73b, N-[2-((2R,3R)1-ethyl-2-methyl-3-piperidyl)thieno[2,3-b]pyridin-4-yl]-4,6-difluoro-1,3-benzothiazol-5-amine]
≤ 10 | C1=C(c2cc3c(Nc4ccc5scnc5c4)ccnc3s2)CCNCC1 [Example 105, N-(2-(2,3,6,7-tetrahydro-1H-azepin-4-yl)thieno[2,3-b]pyridin-4-yl)benzo[d]thiazol-5-amine]
≤ 10 | C[C@H]1NCCC=C1c1cc2c(Nc3c(F)cc4scnc4c3F)ccnc2s1 [Example 66a, (R)-4,6-difluoro-N-(2-(2-methyl-1,2,5,6-tetrahydropyridin-3-yl)thieno[2,3-b]pyridin-4-yl)benzo[d]thiazol-5-amine]
≤ 10 | C[C@@H]1[C@H](c2cc3c(Nc4ccc5scnc5c4)ccnc3s2)CCCN1C [Example 4c, N-(2-(1,2-dimethylpiperidin-3-yl)thieno[2,3-b]pyridin-4-yl)benzo[d]thiazol-5-amine]
≤ 10 | CCN1CCCC(c2cc3c(Nc4ccc5scnc5c4)c(F)cnc3s2)C1C (stereo not shown) [Example 121, N-(2-(1-ethyl-2-methylpiperidin-3-yl)-5-fluorothieno[2,3-b]pyridin-4-yl)benzo[d]thiazol-5-amine]
≤ 10 | CC(=O)N1CCCC(c2cc3c(Nc4ccc5scnc5c4)ccnc3s2)C1C (stereo not shown) [Example 10, 1-(3-(4-(benzo[d]thiazol-5-ylamino)thieno[2,3-b]pyridin-2-yl)-2-methylpiperidin-1-yl)ethan-1-one]
≤ 10 | CC1(C)C(c2cc3c(Nc4ccc5scnc5c4F)ccnc3s2)CCN1CCO (stereo not shown) [Example 92, 2-(3-(4-((4-fluorobenzo[d]thiazol-5-yl)amino)thieno[2,3-b]pyridin-2-yl)-2,2-dimethylpyrrolidin-1-yl)ethan-1-ol]
20 to 50 | C[C@@H]1NCCC[C@@H]1c1cc2c(Nc3cc4ncsc4cc3F)ccnc2s1 [Example 51b]
10 to 20 | Fc1cc2scnc2c(F)c1Nc1ccnc2sc(C3CCNC34CCOCC4)cc12 (stereo not shown) [Example 102, N-(2-(8-oxa-1-azaspiro[4.5]decan-4-yl)thieno[2,3-b]pyridin-4-yl)-4,6-difluorobenzo[d]thiazol-5-amine]
≥ 50 | CCN1CCC(c2cc3c(Nc4cc5ncsc5cc4F)ccnc3s2)C12CCOCC2 (stereo not shown) [Example 86, N-(2-(1-ethyl-8-oxa-1-azaspiro[4.5]decan-4-yl)thieno[2,3-b]pyridin-4-yl)-6-fluorobenzo[d]thiazol-5-amine]
≥ 50 | CC1NCCCC1c1cc2c(Nc3ccc4scnc4c3F)c(F)cnc2s1 (single isomer, unassigned) [Example 124a, 4-fluoro-N-(5-fluoro-2-(2-methylpiperidin-3-yl)thieno[2,3-b]pyridin-4-yl)benzo[d]thiazol-5-amine]
≥ 50 | CC1C(c2cc3c(Nc4ccc5scnc5c4)c(F)cnc3s2)CCCN1C (single isomer, unassigned) [Example 120d, N-(2-(1,2-dimethylpiperidin-3-yl)-5-fluorothieno[2,3-b]pyridin-4-yl)benzo[d]-thiazol-5-amine]
≥ 50 | CC1C(c2cc3c(Nc4ccc5scnc5c4F)c(F)cnc3s2)CCCN1C (single isomer, unassigned) [Example 125a, N-(2-(1,2-dimethylpiperidin-3-yl)-5-fluorothieno[2,3-b]pyridin-4-yl)-4-fluorobenzo[d]thiazol-5-amine]

SMILES | IC50 [nM]
CC(C)N1CCC=C(c2cc3c(Nc4ccc5scnc5c4)ccnc3s2)C1C (stereo not shown) [Example 7, N-(2-(1-isopropyl-2-methyl-1,2,5,6-tetrahydropyridin-3-yl)thieno[2,3-b]pyridin-4-yl)benzo[d]thiazol-5-amine] | ≤ 10
CC1C(c2cc3c(Nc4ccc5scnc5c4)ccnc3s2)CCCN1CCF (stereo not shown) [Example 14, N-(2-(1-(2-fluoroethyl)-2-methylpiperidin-3-yl)thieno[2,3-b]pyridin-4-yl)benzo[d]thiazol-5-amine] | ≤ 10
